Data as given in the NIST ThermoML archive (doi:10.1021/acs.jced.7b00520).

Test: mn = molality of the nth substance listed, in mol/kg
Conditions: 101.3 kPa, Liquid; for viscosity: Capillary tube (Ostwald / Ubbelohde) method; for mass density: Vibrating tube method

Cn1c(=O)c2c(ncn2C)n(C)c1=O [caffeine] + O
Conditions | mass density, 288.15 K [kg/m3] | mass density, 298.15 K [kg/m3] | mass density, 308.15 K [kg/m3] | mass density, 318.15 K [kg/m3] | viscosity, 288.15 K [mPa·s] | viscosity, 298.15 K [mPa·s] | viscosity, 308.15 K [mPa·s] | viscosity, 318.15 K [mPa·s]
m1 = 0.00508 | – | – | – | – | 1.14 | 0.895 | 0.723 | 0.599
m1 = 0.0051 | 999.404 | 997.304 | 994.303 | 990.464 | – | – | – | –
m1 = 0.00693 | – | – | – | – | 1.142 | 0.896 | 0.724 | 0.6
m1 = 0.00695 | 999.505 | 997.399 | 994.39 | 990.545 | – | – | – | –
m1 = 0.009 | – | – | – | – | 1.144 | 0.896 | 0.724 | 0.601
m1 = 0.00902 | 999.619 | 997.504 | 994.488 | 990.637 | – | – | – | –
m1 = 0.01986 | – | – | – | – | 1.147 | 0.9 | 0.728 | 0.606
m1 = 0.01993 | 1000.22 | 998.06 | 995.013 | 991.121 | – | – | – | –
m1 = 0.02978 | – | – | – | – | 1.152 | 0.905 | 0.732 | 0.609
m1 = 0.02992 | 1000.77 | 998.576 | 995.497 | 991.571 | – | – | – | –
m1 = 0.03531 | 1001.07 | 998.853 | 995.759 | 991.812 | – | – | – | –
m1 = 0.03533 | – | – | – | – | 1.154 | 0.907 | 0.735 | 0.611
m1 = 0.03983 | – | – | – | – | 1.156 | 0.91 | 0.737 | 0.613
m1 = 0.04008 | 1001.34 | 999.101 | 996.001 | 992.025 | – | – | – | –
m1 = 0.04953 | – | – | – | – | 1.162 | 0.914 | 0.741 | 0.617
m1 = 0.04992 | 1001.89 | 999.619 | 996.484 | 992.483 | – | – | – | –

Cn1cnc2c1c(=O)[nH]c(=O)n2C [1H-purine-2,6-dione, 3,7-dihydro-3,7-dimethyl-] + O
Conditions | mass density, 288.15 K [kg/m3] | mass density, 298.15 K [kg/m3] | mass density, 308.15 K [kg/m3] | mass density, 318.15 K [kg/m3] | viscosity, 288.15 K [mPa·s] | viscosity, 298.15 K [mPa·s] | viscosity, 308.15 K [mPa·s] | viscosity, 318.15 K [mPa·s]
m1 = 0.00051 | 999.157 | 997.073 | 994.088 | 990.268 | 1.138 | 0.891 | 0.72 | 0.597
m1 = 0.0007 | 999.167 | 997.083 | 994.097 | 990.277 | 1.139 | 0.891 | 0.72 | 0.597
m1 = 0.0009 | 999.177 | 997.093 | 994.107 | 990.287 | 1.139 | 0.891 | 0.72 | 0.597
m1 = 0.00098 | 999.182 | 997.097 | 994.111 | 990.291 | 1.139 | 0.891 | 0.72 | 0.597
m1 = 0.00123 | 999.195 | 997.11 | 994.123 | 990.303 | 1.139 | 0.891 | 0.72 | 0.597
m1 = 0.00147 | – | – | – | – | 1.139 | 0.891 | 0.72 | 0.597
m1 = 0.00148 | 999.209 | 997.123 | 994.135 | 990.314 | – | – | – | –
m1 = 0.00182 | – | – | – | – | 1.139 | 0.891 | 0.72 | 0.597
m1 = 0.00183 | 999.228 | 997.141 | 994.152 | 990.331 | – | – | – | –
m1 = 0.00212 | – | – | – | – | 1.139 | 0.891 | 0.72 | 0.597
m1 = 0.00213 | 999.244 | 997.156 | 994.167 | 990.346 | – | – | – | –

Cn1c(=O)c2[nH]cnc2n(C)c1=O [3,7-dihydro-1,3-dimethyl-1H-purine-2,6-dione] + O
Conditions | mass density, 288.15 K [kg/m3] | mass density, 298.15 K [kg/m3] | mass density, 308.15 K [kg/m3] | mass density, 318.15 K [kg/m3] | viscosity, 288.15 K [mPa·s] | viscosity, 298.15 K [mPa·s] | viscosity, 308.15 K [mPa·s] | viscosity, 318.15 K [mPa·s]
m1 = 0.00208 | 999.241 | 997.153 | 994.165 | 990.343 | – | – | – | –
m1 = 0.00213 | – | – | – | – | 1.139 | 0.891 | 0.719 | 0.597
m1 = 0.00284 | – | – | – | – | 1.139 | 0.892 | 0.72 | 0.597
m1 = 0.00285 | 999.283 | 997.192 | 994.204 | 990.379 | – | – | – | –
m1 = 0.00378 | 999.333 | 997.239 | 994.25 | 990.423 | – | – | – | –
m1 = 0.00394 | – | – | – | – | 1.14 | 0.892 | 0.72 | 0.598
m1 = 0.00479 | 999.388 | 997.291 | 994.3 | 990.472 | – | – | – | –
m1 = 0.00519 | – | – | – | – | 1.14 | 0.892 | 0.721 | 0.598
m1 = 0.00578 | 999.443 | 997.341 | 994.35 | 990.519 | – | – | – | –
m1 = 0.00617 | – | – | – | – | 1.141 | 0.893 | 0.722 | 0.599
m1 = 0.00689 | – | – | – | – | 1.141 | 0.893 | 0.722 | 0.599
m1 = 0.00699 | 999.509 | 997.404 | 994.41 | 990.578 | – | – | – | –
m1 = 0.00776 | 999.551 | 997.443 | 994.448 | 990.614 | – | – | – | –
m1 = 0.00819 | – | – | – | – | 1.142 | 0.894 | 0.723 | 0.599
m1 = 0.00921 | – | – | – | – | 1.142 | 0.895 | 0.723 | 0.6
m1 = 0.00934 | 999.638 | 997.526 | 994.528 | 990.691 | – | – | – | –
m1 = 0.00986 | 999.667 | 997.554 | 994.554 | 990.716 | – | – | – | –
